We go through five compounds from patent US20250163053A1, “CRYSTALLINE FORM OF NITROGEN-CONTAINING HETEROCYCLIC COMPOUND, PREPARATION METHOD THEREFOR AND USE THEREOF” (SHANGHAI PHARMACEUTICALS HOLDING CO., LTD., priority 2022, published 2025).

As usually defined, the Cmax is the maximum level reached in the sampled fluid or tissue. What is called Tmax is the time at which the peak concentration occurs. The half-life is the time in which the quantity being followed falls by half. Low readings indicate rapid decline, high ones slow decline. What is called MRT is the average time that molecules of a dose stay in the body. By IC50 is commonly meant the concentration needed to halve the response being measured.

The nature of data set [1]: Absorption in rats after intragastric administration of different crystal forms (plasma PK, LC/MS/MS). The class given is in vivo. Particulars: 8 mg/kg. On the procedure:
SD rats were intragastrically administered samples of different crystal forms. Blood samples (0.4 mL) were respectively collected from the venous plexus of the rat's fundus oculi at various time points: before administration and at 5, 15, 30, 60, 90, 120, 240, 360, 480, 600, and 1440 minutes after administration. The blood samples were centrifuged at 8000 rpm for 5 minutes to separate the upper plasma. 50 μL of plasma sample was added with 300 μL of acetonitrile containing an internal standard (Propranolol, 25 ng/mL) to precipitate proteins. The mixture was vortexed for 10 minutes, and centrifuged at 6000 g and 4° C. for 20 minutes. The supernatant (20 μL) was taken and diluted with 80 μL of ultrapure water. After centrifugation, 80 μL of the supernatant was taken for injection into a 96-well plate. The plasma drug concentration was determined using LC/MS/MS, and the corresponding pharmacokinetic parameters were calculated, as shown in Table 17.

The target of a further data set is T1, ErbB2 kinase (HER2) (Homo sapiens, UniProt P04626).
T1 construct: purchased Sigma E2645-500UN
Put plainly: EGFR/ErbB2 enzymatic assay (HTRF kinEASE-TK), ErbB2. The class given is biochemical. Particulars: ErbB2 kinase 0.06 ng/μL, ATP 4 μM. Here is the method:
(§1) First, a 1× reaction buffer required for the kinase was prepared by diluting the 5× Enzymatic Buffer (HEPES 20 mM, pH 7.0, NaN3 0.1%, BSA 0.05%, sodium orthovanadate 0.5 mM) from the HTRF kinEASE-TK kit with deionized water to one-fold. At the same time, 50 nM Supplement Enzymatic Buffer (SEB reagent), 1 mM MnCl2, 5 mM MgCl2, and 1 mM DTT were added. Next, a 5× compound solution was prepared. […] This initial concentration was then used as the first concentration, and further diluted with DMSO in a 3-fold serial dilution to dilute a total of 10 concentrations. Subsequently, 1 μL of the serially diluted solution was added to 19 μL of 1× reaction buffer to prepare the 5× compound solution for later use. Then, 2 μL of the 5× compound solution was transferred from the 96-well plate into a 384-well plate. In the no-compound control wells, 2 μL of a mixture of 1 μL DMSO and 19 μL 1× reaction buffer was added. In the blank control wells, 2 μL of 250 mM EDTA was added. In the third step, the enzyme reaction stage, the kinase, substrate (TK Substrate-biotin), and ATP were prepared into a 2.5× enzyme/substrate mixture and a 2.5× ATP solution using the 1× reaction buffer. […] Data were measured on EnVision™, with a 337 nm laser used as the excitation light. The RFU was measured at 665 nm and 620 nm, and RFU 665 nM/RFU 620 nM×10000 was used as the final data for analysis.
(In TR-FRET formats the signal depends on donor and acceptor labels being close together.)

Another data set addresses T2, EGFR kinase (Homo sapiens, UniProt P00533).
T2 construct: purchased Carna 08-016
Kind of data set: EGFR/ErbB2 enzymatic assay (HTRF kinEASE-TK), EGFR. The note with it: EGFR kinase 0.06 units/μL, ATP 1.65 μM. The class given is biochemical. Here is the method: as §1

Data set [2] can be described thus: Physicochemical stability of crystal form C (UPLC purity, XRPD). On the procedure:
The solid samples after being placed under different conditions were respectively tested for purity by UPLC to evaluate chemical stability, and the crystal form was tested by XRPD to evaluate physical stability. […] Additionally, no significant degradation was observed after one day at 60° C. or one week at 25° C./60% RH and 40° C./75% RH (details of purity changes are provided in Table 16).

Like-named read-outs stand apart in the source and are kept apart here.

T2 sequence (P00533 25-1210): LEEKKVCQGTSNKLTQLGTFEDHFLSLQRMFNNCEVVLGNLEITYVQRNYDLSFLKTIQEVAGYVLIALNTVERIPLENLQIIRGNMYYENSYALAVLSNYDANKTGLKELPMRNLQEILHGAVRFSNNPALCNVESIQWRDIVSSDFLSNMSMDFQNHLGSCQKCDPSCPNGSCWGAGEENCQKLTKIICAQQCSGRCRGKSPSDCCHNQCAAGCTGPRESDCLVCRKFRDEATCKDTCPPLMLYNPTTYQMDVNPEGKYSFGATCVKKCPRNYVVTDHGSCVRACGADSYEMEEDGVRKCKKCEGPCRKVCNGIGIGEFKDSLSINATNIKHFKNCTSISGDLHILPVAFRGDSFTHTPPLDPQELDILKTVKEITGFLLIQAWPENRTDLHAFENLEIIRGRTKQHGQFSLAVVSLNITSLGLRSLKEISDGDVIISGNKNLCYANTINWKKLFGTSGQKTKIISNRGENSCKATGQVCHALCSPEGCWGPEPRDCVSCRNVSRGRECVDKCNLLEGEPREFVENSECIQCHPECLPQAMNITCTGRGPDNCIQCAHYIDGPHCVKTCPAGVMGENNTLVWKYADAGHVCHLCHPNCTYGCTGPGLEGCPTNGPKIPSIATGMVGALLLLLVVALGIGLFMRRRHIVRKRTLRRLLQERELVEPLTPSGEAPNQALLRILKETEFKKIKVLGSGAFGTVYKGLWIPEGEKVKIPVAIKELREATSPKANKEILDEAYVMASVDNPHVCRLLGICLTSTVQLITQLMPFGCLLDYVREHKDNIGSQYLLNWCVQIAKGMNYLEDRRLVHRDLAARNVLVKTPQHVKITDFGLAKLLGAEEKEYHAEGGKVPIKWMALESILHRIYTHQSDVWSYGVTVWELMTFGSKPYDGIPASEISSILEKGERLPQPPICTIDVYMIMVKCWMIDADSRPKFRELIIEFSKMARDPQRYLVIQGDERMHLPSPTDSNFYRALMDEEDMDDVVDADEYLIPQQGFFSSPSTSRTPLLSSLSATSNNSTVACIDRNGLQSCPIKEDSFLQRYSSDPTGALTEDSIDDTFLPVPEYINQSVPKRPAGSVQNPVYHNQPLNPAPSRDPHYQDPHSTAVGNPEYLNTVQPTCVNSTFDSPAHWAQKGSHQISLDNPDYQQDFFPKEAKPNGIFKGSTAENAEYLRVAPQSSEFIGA
T1 sequence (P04626 23-1255): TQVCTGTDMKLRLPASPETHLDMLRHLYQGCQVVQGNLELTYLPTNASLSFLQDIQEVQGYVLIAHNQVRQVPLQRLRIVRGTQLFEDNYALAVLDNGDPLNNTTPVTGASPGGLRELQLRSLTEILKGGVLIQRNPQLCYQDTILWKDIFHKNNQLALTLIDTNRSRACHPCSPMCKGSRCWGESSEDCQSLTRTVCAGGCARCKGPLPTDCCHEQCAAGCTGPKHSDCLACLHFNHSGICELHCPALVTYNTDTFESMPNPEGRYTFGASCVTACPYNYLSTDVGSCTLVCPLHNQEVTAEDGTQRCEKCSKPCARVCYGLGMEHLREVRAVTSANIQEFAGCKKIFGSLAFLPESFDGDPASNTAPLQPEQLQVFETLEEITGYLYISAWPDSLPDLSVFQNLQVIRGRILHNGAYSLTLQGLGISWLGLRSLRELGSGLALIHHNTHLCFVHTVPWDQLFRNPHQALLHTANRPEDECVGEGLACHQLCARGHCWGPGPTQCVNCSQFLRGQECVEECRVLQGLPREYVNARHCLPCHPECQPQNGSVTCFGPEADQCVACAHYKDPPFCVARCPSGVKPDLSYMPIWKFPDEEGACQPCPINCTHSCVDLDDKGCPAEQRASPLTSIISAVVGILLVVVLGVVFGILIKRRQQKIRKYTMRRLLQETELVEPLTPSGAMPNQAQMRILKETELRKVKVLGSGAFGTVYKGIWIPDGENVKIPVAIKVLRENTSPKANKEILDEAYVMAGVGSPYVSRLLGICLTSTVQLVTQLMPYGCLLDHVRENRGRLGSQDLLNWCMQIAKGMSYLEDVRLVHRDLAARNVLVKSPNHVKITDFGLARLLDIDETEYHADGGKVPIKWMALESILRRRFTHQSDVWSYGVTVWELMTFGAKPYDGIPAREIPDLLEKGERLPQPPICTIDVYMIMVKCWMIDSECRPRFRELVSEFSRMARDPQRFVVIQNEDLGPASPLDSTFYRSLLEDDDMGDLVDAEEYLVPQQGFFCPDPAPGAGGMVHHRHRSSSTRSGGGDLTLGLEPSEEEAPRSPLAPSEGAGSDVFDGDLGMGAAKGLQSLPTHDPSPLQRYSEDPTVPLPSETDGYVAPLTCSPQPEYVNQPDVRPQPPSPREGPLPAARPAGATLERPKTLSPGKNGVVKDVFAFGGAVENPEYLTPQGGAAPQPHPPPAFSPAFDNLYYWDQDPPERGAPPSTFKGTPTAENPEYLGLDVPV

Take `CCOc1cc2ncnc(Nc3ccc(Oc4ccn5ncnc5c4)c(C)c3)c2cc1NC(=O)/C(F)=C/[C@H]1CCCN1C` [Amorphous form, (R,Z)-N-(4-((4-([1,2,4]triazolo[1,5-α]pyridin-7-yloxy)-3-methylphenyl)amino)-7-ethoxyquinazolin-6-yl)-2-fluoro-3-(1-methylpyrrolidin-2-yl)acrylamide]: in data set [1] (SD rats), the AUCextra is given as 0.758 (h)*(ng/mL), the AUClast is reported as 6536 (h)*(ng/mL), the AUCtot is 6586 (h)*(ng/mL) and the Cmax worked out at 800 ng/mL. Further, in data set [1] (SD rats), the Tmax is 6.00 h. In data set [1] (SD, rat, plasma, po), this compound gave a half-life of 3.03 h. For the same compound, the MRT in data set [1] (SD, rat, plasma, po, read-out: MRT) is 6.52 h.

Turning to `CCOc1cc2ncnc(Nc3ccc(Oc4ccn5ncnc5c4)c(C)c3)c2cc1NC(=O)/C(F)=C/[C@H]1CCCN1C` [Crystal form A, (R,Z)-N-(4-((4-([1,2,4]triazolo[1,5-α]pyridin-7-yloxy)-3-methylphenyl)amino)-7-ethoxyquinazolin-6-yl)-2-fluoro-3-(1-methylpyrrolidin-2-yl)acrylamide], in data set [1] (SD rats), the AUCextra was 0.288 (h)*(ng/mL), the AUClast is 4789 (h)*(ng/mL), the AUCtot is recorded as 4802 (h)*(ng/mL) and the Cmax was determined as 753 ng/mL. Further, in data set [1] (SD rats), the MRT was 4.74 h, the Tmax worked out at 2.00 h and the t1/2 is on record as 2.74 h.

Consider `CCOc1cc2ncnc(Nc3ccc(Oc4ccn5ncnc5c4)c(C)c3)c2cc1NC(=O)/C(F)=C/[C@H]1CCCN1C` [Crystal form B, (R,Z)-N-(4-((4-([1,2,4]triazolo[1,5-α]pyridin-7-yloxy)-3-methylphenyl)amino)-7-ethoxyquinazolin-6-yl)-2-fluoro-3-(1-methylpyrrolidin-2-yl)acrylamide], for which, in data set [1] (SD rats), the AUCextra is given as 1.01 (h)*(ng/mL), the AUClast was 5904 (h)*(ng/mL), the AUCtot is given as 5965 (h)*(ng/mL) and the Cmax amounted to 599 ng/mL. In data set [1] (SD rats), the MRT turned out to be 6.07 h, the Tmax amounted to 6.00 h and the t1/2 was found to be 3.34 h.

With `CCOc1cc2ncnc(Nc3ccc(Oc4ccn5ncnc5c4)c(C)c3)c2cc1NC(=O)/C(F)=C/[C@H]1CCCN1C` [Crystal form C, (R,Z)-N-(4-((4-([1,2,4]triazolo[1,5-α]pyridin-7-yloxy)-3-methylphenyl)amino)-7-ethoxyquinazolin-6-yl)-2-fluoro-3-(1-methylpyrrolidin-2-yl)acrylamide], in data set [1] (SD rats), the AUCextra is on record as 0.451 (h)*(ng/mL), the AUClast is on record as 6863 (h)*(ng/mL), the AUCtot was 6894 (h)*(ng/mL) and the Cmax was determined as 1165 ng/mL. Further, in data set [1] (SD rats), the MRT was found to be 4.63 h, the Tmax is reported as 2.00 h and the t1/2 came out at 3.04 h. Moreover, on ErbB2 kinase (HER2), it took 0.26 nM to reach half-maximal inhibition (IC50). At EGFR kinase, the IC50 was found to be 1.45 nM. Also, the Stability sample purity in data set [2] (25° C./60% RH, 1 week, open) came to 99.29 area %. Moreover, in data set [2] (25° C./60% RH, one week), the “Peak at RRT 0.63” value turned out to be 0.18%, the “Peak at RRT 0.67” value was 0.18%, the “Peak at RRT 0.95” value is 0.08% and the “Peak at RRT 1.00” value was 99.29%. For the same compound, in data set [2] (25° C./60% RH, one week), the “Peak at RRT 1.03” value was 0.12% and the “Peak at RRT 1.08” value was found to be 0.15%. The compound further returned a Stability sample purity in data set [2] (40° C./75% RH, 1 week, open) of 99.29 area %. In addition, in data set [2] (40° C./75% RH, one week), the “Peak at RRT 0.63” value was found to be 0.18%, the “Peak at RRT 0.67” value stood at 0.18%, the “Peak at RRT 0.95” value came out at 0.08% and the “Peak at RRT 1.00” value was 99.29%. For the same compound, in data set [2] (40° C./75% RH, one week), the “Peak at RRT 1.03” value is 0.12% and the “Peak at RRT 1.08” value was found to be 0.15%. For the same compound, in data set [2] (60° C., 24 hours, sealed), the Stability sample purity stood at 99.29 area %. Further, in data set [2] (60° C., one day), the “Peak at RRT 0.63” value is recorded as 0.18%, the “Peak at RRT 0.67” value came to 0.18%, the “Peak at RRT 0.95” value was found to be 0.08% and the “Peak at RRT 1.00” value was determined as 99.29%. Also, in data set [2] (60° C., one day), the “Peak at RRT 1.03” value is recorded as 0.12% and the “Peak at RRT 1.08” value came to 0.15%. Moreover, in data set [2] (Initial sample), the “Peak at RRT 0.63” value came to 0.18%, the “Peak at RRT 0.67” value was found to be 0.18%, the “Peak at RRT 0.95” value is on record as 0.08% and the “Peak at RRT 1.00” value worked out at 99.31%. In data set [2] (Initial sample), the “Peak at RRT 1.03” value came out at 0.10% and the “Peak at RRT 1.08” value is reported as 0.15%. Further, the Crystal form change result in data set [2] (XRPD, 60° C. 24 hours, 25° C./60% RH 1 week, 40° C./75% RH 1 week) is recorded as “No”. This compound yielded an Initial purity in data set [2] (before storage, UPLC) of 99.31 area %.

Regarding `CCOc1cc2ncnc(Nc3ccc(Oc4ccn5ncnc5c4)c(C)c3)c2cc1NC(=O)/C(F)=C/[C@H]1CCCN1C` [Crystal form M, (R,Z)-N-(4-((4-([1,2,4]triazolo[1,5-α]pyridin-7-yloxy)-3-methylphenyl)amino)-7-ethoxyquinazolin-6-yl)-2-fluoro-3-(1-methylpyrrolidin-2-yl)acrylamide], in data set [1] (SD rats), the AUCextra was 0.169 (h)*(ng/mL), the AUClast is listed as 2870 (h)*(ng/mL), the AUCtot was 2875 (h)*(ng/mL) and the Cmax is listed as 489 ng/mL. In addition, in data set [1] (SD rats), the MRT came out at 4.59 h, the Tmax came to 2.00 h and the t1/2 came out at 2.55 h.
